From patent publication US8404664B2, “Phosphonated Rifamycins and uses thereof for the prevention and treatment of bone and joint infections” (Targanta Therapeutics, Inc., priority 2005, dated 2013) come the findings set out here.

For experiment [1], the system named is S. aureus ATCC 13709 Novobiocin resistant mutant (bone infection). The experiment can be described thus: Prophylactic efficacy in rat model of S. aureus bone infection. To be noted: for Prophylactic effect (in words): rat bone infection, doses and times of Table 3, t-test p<0.05; for Measured bacterial titer: rat tibia 24 h postinfection. The format is in vivo.

Experiment [2] concerns S. aureus (chronic bone infection). The experiment can be described thus: Treatment of chronic osteomyelitis caused by S. aureus in rat model. In kind it is in vivo. To be noted: for Decrease in bacterial titer / Effect on bacterial titer in bone infection versus the untreated control (figure legends): prodrug iv at 20 mg/kg parent equivalent; for Decrease in bacterial titer: q24hx4+q4 days, FIGS. 3, 4, 5; for Effect on bacterial titer in bone infection versus the untreated control (figure legends): regimen of the figure, 4 weeks post-infection. An excerpt: To appraise the ability of bisphosphonated prodrugs of Rifamycin derivatives in treating chronic bone infections, a comparison was made between parent compounds 9, 56, 69, rifabutin and rifalazil (all of which are non-bisphosphonated rifamycin derivatives), and their corresponding bisphosphonated prodrugs, respectively 11, 62, 71, 36 and 81, when used to treat chronically (14- to 28-day) infected rats for 4 weeks of antimicrobial therapy.
In this experiment, rats were infected as described in Example 4 and treated with either 20 mg/kg of body weight of the specific rifamycin derived antibacterial agent subcutaneously, or a molar equivalent dose of its bisphosphonated prodrug intravenously according to the indicated schedule after instillation of bacteria. The standard controls involving no treatment and a subcutaneous treatment of 20 mg/kg of Rifampicin daily were also included. The rats were humanely sacrificed at the conclusion of the experiment and the bacterial titers in the infected tibiae were determined.
This experiment was performed with 20 mg/kg of body weight of rifamycin derivative 9 subcutaneously or with 32 mg/kg of its prodrug 11 (corresponding to 20 mg/kg of 9) intravenously on each of the 20th, 24th, 28th, 32nd, 36th, 40th and […] days (q4 days) after instillation of bacteria. Alternatively, 11 was administered by the same route and at the same dose on the 20th, 21st, 22nd, 23rd, 30th, 37th, 44th and 47th days (q24hx4+q7d) after the instillation of bacteria. The same controls (no treatment or daily subcutaneous 20 mg/kg dose of rifampicin) were used. The rats were humanely sacrificed on the 48th day after the initiation of infection and the bacterial titers in the infected tibiae were determined.
This experiment was also executed in which similarly infected rats were treated with either 20 mg/kg of body weight of rifabutin subcutaneously or with 33.4 mg/kg of its prodrug 36 (corresponding to 20 mg/kg of rifabutin) intravenously on each of the 28th, 32nd, 36th, 40th, 44th, 48th and 52nd days (q4 days) after instillation of bacteria. The same controls (no treatment or daily subcutaneous 20 mg/kg dose of rifampicin) were used. The rats were humanely sacrificed on the 55th day after the initiation of infection and the bacterial titers in the infected tibiae were determined.
This experiment was also executed in which similarly infected rats were treated with either 20 mg/kg of body weight of the rifamycin derived antibacterial agent 56 subcutaneously or with 26 mg/kg of its prodrug 62 (corresponding to 20 mg/kg of 56) intravenously on each of the 27th, 28th, 29th, 30th, 34th, 38th, 42nd, 46th and 50th days (q24hx4+q4 days) after instillation of bacteria. The same controls (no treatment or daily subcutaneous 20 mg/kg dose of rifampicin) were used. The rats were humanely sacrificed on the 51^St day after the initiation of infection and the bacterial titers in the infected tibiae were determined.
This experiment was also executed in which similarly infected rats were treated with either 20 mg/kg of body weight of the rifamycin derived antibacterial agent 69 subcutaneously or with 28 mg/kg of its prodrug 71 (corresponding to 20 mg/kg of 69) intravenously on each of the 18th, 19th, 20th, 21st, 25th, 29th, 33rd, 37th, 41st and 45th days (q24hx4+q4 days) after instillation of bacteria. The same controls (no treatment or daily subcutaneous 20 mg/kg dose of rifampicin) were used. The rats were humanely sacrificed on the 46th day after the initiation of infection and the bacterial titers in the infected tibiae were determined.

[3] abbreviates: single dose 11 mg/kg parent drug equivalent, 3 days prior to infection.
[4] abbreviates: FIG. 1: 9 20 mg/kg sc q4 days, 11 32 mg/kg iv q4d or q24hx4+q7d.

On to `CO[C@H]1/C=C/O[C@@]2(C)Oc3c(C)c(O)c4c(=O)c(c5oc6cc(N7CCN(CCOC(=O)CCC(=O)NC(P(=O)(O)O)P(=O)(O)O)CC7)cc(O)c6nc-5c4c3C2=O)NC(=O)/C(C)=C\C=C\[C@H](C)[C@H](O)[C@@H](C)[C@@H](O)[C@@H](C)[C@H](OC(C)=O)[C@@H]1C.N.N` [Compound 62], for which the “Prophylactic effect (in words)” value in experiment [1] is “statistically significant”. For the same compound, the Measured bacterial titer in experiment [1] (single dose 20 mg/kg parent drug equivalent, 2 days prior to infection) is 1.98 ± 0.06 Log CFU/g of bone. Moreover, in experiment [2], the “Decrease in bacterial titer” value is “approximately 1 logarithmic order of magnitude” and the “Effect on bacterial titer in bone infection versus the untreated control (figure legends)” value is on record as “small but statistically significant effect”.
For “3-(((4-(2-(3-((bisphosphonomethyl)carbamoyl)propanoyloxy)ethyl)-1-piperazinyl)imino)methyl)rifamycin [Compound 11]”, the “Prophylactic effect (in words)” value in experiment [1] is listed as “statistically significant”. The Measured bacterial titer in experiment [1] (setting [3]) is 3.01 ± 0.47 Log CFU/g of bone. Also, in experiment [2] (setting [4]), the “Effect on bacterial titer in bone (in words)” value is recorded as “not statistically significant”. The “Effect on bacterial titer in bone infection versus the untreated control (figure legends)” value in experiment [2] is reported as “small but not statistically significant effect”.
For `CO[C@H]1/C=C/O[C@@]2(C)Oc3c(C)c(O)c4c(=O)c(c5oc6cc(N7CCN(CCC(=O)c8ccc(OCCCC(P(=O)(O)O)P(=O)(O)O)cc8)CC7)cc(O)c6nc-5c4c3C2=O)NC(=O)/C(C)=C\C=C\[C@H](C)[C@H](O)[C@@H](C)[C@@H](O)[C@@H](C)[C@H](OC(C)=O)[C@@H]1C` [Compound 71], the “Prophylactic effect (in words)” value in experiment [1] is “statistically significant”. Besides, the Measured bacterial titer in experiment [1] (single dose 20 mg/kg parent drug equivalent, 3 days prior to infection) is 2.77 ± 1.00 Log CFU/g of bone. Besides, in experiment [2], the “Decrease in bacterial titer” value was “approximately 1 logarithmic order of magnitude” and the “Effect on bacterial titer in bone infection versus the untreated control (figure legends)” value is recorded as “small but statistically significant effect”.
For the compound `CO[C@H]1/C=C/O[C@@]2(C)Oc3c(C)c(O)c4c(O)c(c(/C=N/N5CCN(CCO)CC5)c(O)c4c3C2=O)NC(=O)/C(C)=C\C=C\[C@H](C)[C@H](O)[C@@H](C)[C@@H](O)[C@@H](C)[C@H](OC(C)=O)[C@@H]1C` [Compound 9, 3-(((4-(2-hydroxyethyl)-1-piperazinyl)imino)methyl)rifamycin], the Measured bacterial titer in experiment [1] (setting [3]) is listed as 6.38 ± 0.90 Log CFU/g of bone. In addition, the “Effect on bacterial titer in bone (in words)” value was “smaller but still statistically significant reduction” in experiment [2] (20 mg/kg sc once daily, 15th to 28th day after infection, FIG. 6) and “completely ineffective” in experiment [2] (setting [4]).
Consider `CO[C@H]1/C=C/O[C@@]2(C)Oc3c(C)c(O)c4c(=O)c(c5oc6cc(N7CCN(CC(C)C)CC7)cc(O)c6nc-5c4c3C2=O)NC(=O)/C(C)=C\C=C\[C@H](C)[C@H](OC(=O)CCCOC(=O)CCC(=O)NC(P(=O)(O)O)P(=O)(O)O)[C@@H](C)[C@@H](O)[C@@H](C)[C@H](OC(C)=O)[C@@H]1C` [Compound 81, 21-O-(4-((3-(bisphosphonomethyl)carbamoyl)propanoyloxy)butanoyl)-1′,4-Didehydro-1-deoxy-1,4-dihydro-3′-hydroxy-5′-[4-(2-methylpropyl)-1-piperazinyl]-1-oxorifamycin VIII], for which, in experiment [1], the “Prophylactic effect (in words)” value is reported as “statistically significant”. For the same compound, in experiment [1] (single dose 10 mg/kg parent drug equivalent, 3 days prior to infection), the Measured bacterial titer is reported as 2.05 ± 0.06 Log CFU/g of bone. Besides, in experiment [2], the “Decrease in bacterial titer” value is on record as “approximately 1 logarithmic order of magnitude” and the “Effect on bacterial titer in bone infection versus the untreated control (figure legends)” value was “small but statistically significant effect”.
